For one test, the system named is S. aureus SH1000. Nature of the test: MIC / growth inhibition assay (end-point OD600), single agent. The class given is cell-based. Particulars: Staphylococcus aureus, SH1000, 18 h, end-point OD600 after 18 h, read-out: EC50 S. aureus (SH1000) Compound only. The text has this:
(§1) Minimum inhibitory concentration (MIC) assays were used to evaluate the antimicrobial activity of compounds against Gram-negative (E. coli) and Gram-positive (S. aureus) bacteria. […] Gram-positive bacteria are more susceptible to small-molecule penetration, and compounds were therefore assessed for growth inhibition against the S. aureus SH1000 strain.
(§2) 2.1. Biological and biochemical methods
(§3) Bacterial strains and culture conditions
(§4) Strains utilized in the present study are detailed in Table S1. All strains used were cultivated on Mueller Hinton Agar (MHA) and grown to stationary-phase in Mueller Hinton Broth (MHB) at 37 °C for 16 h, with shaking at 180 r.p.m.
(§5) Minimum inhibitory concentration (MIC) assays
(§6) MIC assays were performed in 96 well plates and MICs were determined in accordance with the broth microdilution protocol.4 Strains grown to stationary-phase in MHB were adjusted to 5 x 10^5 colony-forming units (CFU)/mL in fresh MHB (100 µL/well) supplemented with DMSO to ensure a constant concentration of 0.5% (v/v) DMSO across all experiments. Where […]
(§7) or H2O2 (200 μM). Test compounds were prepared as two-fold serial dilutions. Cells were […]
(§8) as the lowest concentration with no visible bacterial growth, and the optical density at 600 nm (OD600) was recorded. OD600 measurements were background corrected against no-inocula control and normalized to DMSO control for dose-response analysis. The EC50 value mean and SEM were calculated from individual EC50 values from three biological replicates. […]

Test [1] deals with MRSA (USA300 JE2). The test can be described thus: Growth inhibition in the presence of H2O2. The class given is cell-based, Staphylococcus aureus. On the procedure:
(§9) The analogue panel was further tested for potentiation of alternative DNA-damaging agents Mitomycin-C (MMC) and hydrogen peroxide (Table S2), which function via alkylation and oxidization DNA bases, respectively.
as §2, §3, §4, §5, §6, §7, §8

In test [2] the test system is methicillin-resistant S. aureus (MRSA, USA300 JE2). Nature of the test: MIC / growth inhibition assay (end-point OD600), single agent. It is filed as cell-based, Staphylococcus aureus.
Description: as §1
Methicillin-resistant S. aureus (MRSA) is a multi-drug resistant bacterium responsible for a large number of nosocomial infections.[34] The emergence of community associated (CA)-MRSA capable of infection of healthy individuals highlights its significance and clinical relevance.[35]
as §2, §3, §4, §5, §6, §7, §8

Another test deals with JE2. The test can be described thus: Synergy experiments with CFX (growth rate method, Chou-Talalay, CompuSyn). The class given is cell-based, Staphylococcus aureus. On the procedure:
A more precise method to determine EC50 values for individual compounds and combinations was used to increase accuracy for CI calculations. […]
Synergy experiments were performed as described for MIC assays. Two-fold serial dilutions […]
carried out at 37 °C, with shaking at 220 r.p.m. OD600 was recorded every 30 min over a 17 h period. Measurements were background corrected against the no-inocula control before a growth curve of OD600 against time was constructed. The gradient of the exponential phase was obtained by linear regression. Gradients were normalized against the smallest and largest value within the respective data set prior to analysis with the CompuSyn software (http://www.combosyn.com/) to calculate combination index (CI) and dose-reduction index (DRI) values for each drug combination. […]

In test [3] the test system is methicillin-resistant S. aureus (MRSA, USA300 JE2). The test can be described thus: Ciprofloxacin (CFX) potentiation in MRSA growth inhibition assay. It is filed as cell-based, Staphylococcus aureus. On the procedure: as §2, §3, §4, §5, §6, §7, §8
Test [4] deals with MRSA (USA300 JE2). The test can be described thus: Growth inhibition in the presence of mitomycin-C. It is filed as cell-based, Staphylococcus aureus. On the procedure: as §9, §2, §3, §4, §5, §6, §7, §8
For a further test, the target named is T1, E. coli topoisomerase IV (Escherichia coli, UniProt P0AFI2+P20083).
T1 construct: purchased Inspiralis
T1 sequence (P0AFI2 whole entry): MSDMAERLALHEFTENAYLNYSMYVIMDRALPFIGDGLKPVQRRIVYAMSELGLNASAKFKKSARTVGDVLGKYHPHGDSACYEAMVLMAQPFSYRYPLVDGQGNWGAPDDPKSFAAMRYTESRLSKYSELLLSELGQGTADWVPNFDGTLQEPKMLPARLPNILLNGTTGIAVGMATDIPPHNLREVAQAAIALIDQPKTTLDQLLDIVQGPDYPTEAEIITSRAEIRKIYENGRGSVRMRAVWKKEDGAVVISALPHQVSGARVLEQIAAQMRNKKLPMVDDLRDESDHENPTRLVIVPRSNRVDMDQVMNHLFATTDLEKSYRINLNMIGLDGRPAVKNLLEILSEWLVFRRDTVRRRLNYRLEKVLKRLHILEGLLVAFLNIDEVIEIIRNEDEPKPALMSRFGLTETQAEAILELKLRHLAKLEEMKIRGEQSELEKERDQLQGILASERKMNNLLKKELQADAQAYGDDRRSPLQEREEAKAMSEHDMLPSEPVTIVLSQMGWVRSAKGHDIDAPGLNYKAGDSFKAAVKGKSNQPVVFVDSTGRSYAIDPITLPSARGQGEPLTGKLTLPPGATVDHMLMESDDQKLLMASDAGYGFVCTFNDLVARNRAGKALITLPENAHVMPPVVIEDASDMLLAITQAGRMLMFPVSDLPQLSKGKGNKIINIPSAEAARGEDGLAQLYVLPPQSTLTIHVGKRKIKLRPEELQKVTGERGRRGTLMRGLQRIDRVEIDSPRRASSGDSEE
T1 sequence (P20083 whole entry): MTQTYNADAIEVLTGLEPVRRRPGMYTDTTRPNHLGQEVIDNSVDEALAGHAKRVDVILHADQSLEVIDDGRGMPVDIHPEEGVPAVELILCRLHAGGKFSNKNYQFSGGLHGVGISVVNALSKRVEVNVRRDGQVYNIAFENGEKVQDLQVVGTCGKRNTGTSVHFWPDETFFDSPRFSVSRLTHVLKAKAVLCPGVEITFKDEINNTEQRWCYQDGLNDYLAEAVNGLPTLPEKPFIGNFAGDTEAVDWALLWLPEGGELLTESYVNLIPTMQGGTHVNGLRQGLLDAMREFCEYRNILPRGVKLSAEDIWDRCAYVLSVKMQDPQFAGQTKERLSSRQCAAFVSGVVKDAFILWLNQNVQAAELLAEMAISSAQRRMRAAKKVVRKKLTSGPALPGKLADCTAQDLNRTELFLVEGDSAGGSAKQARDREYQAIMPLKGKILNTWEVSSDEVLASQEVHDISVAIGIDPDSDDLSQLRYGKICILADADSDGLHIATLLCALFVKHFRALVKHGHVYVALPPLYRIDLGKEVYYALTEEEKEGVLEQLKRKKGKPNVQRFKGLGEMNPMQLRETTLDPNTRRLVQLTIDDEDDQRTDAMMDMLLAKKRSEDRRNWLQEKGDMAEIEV
The test can be described thus: Topoisomerase IV supercoiling relaxation assay (pQE80L). The class given is biochemical. To be noted: at 12.5 µM (compounds).

The term EC50 denotes the midpoint of the concentration-response curve. For `O=C(O)c1cn(C2CC2)c2cc(N3CCN(C(=S)Nc4ccc(C(F)(F)F)cc4)CC3)c(F)cc2c1=O` [Compound 10], the EC50 in the test on S. aureus SH1000 came to 210 ± 30 nM; with MRSA (USA300 JE2) [1] (read-out: EC50 Compound + H2O2 (200 µM), MRSA USA300 JE2, H2O2 200 µM), 4100 ± 600 nM; in test [2] (Staphylococcus aureus, 18 h, read-out: EC50 S. aureus (USA300 JE2) Compound only, single agent, end-point OD600 after 18 h) it was 3800 ± 500 nM; with JE2 (Staphylococcus aureus, JE2, rate of exponential growth phase over 17 h at 37 °C), 2800 ± 200 nM; in test [3] (read-out: EC50 S. aureus (USA300 JE2) Compound + CFX (9.4 μM), in presence of half-MIC CFX (9.4 μM)) it was 5.9 ± 0.6 nM; in the test with MRSA (USA300 JE2) [4] (read-out: EC50 Compound + MMC (0.40 µM), MRSA USA300 JE2, mitomycin-C 0.40 µM), 1400 ± 300 nM. In addition, in the test on MRSA (USA300 JE2) [1] (JE2), the “Potentiation of hydrogen peroxide” value is recorded as “did not potentiate”. The “fold less potent against JE2 compared to SH1000” value in test [2] (ratio of single-agent EC50 values) was above 20 fold. Moreover, the “Dose-reduction index (DRI)” value in the test with JE2 (JE2, combination with CFX, CompuSyn) amounted to 2.8. In addition, in the test on JE2 (JE2, constant-ratio combination with CFX, CompuSyn), the “Combination index (CI) with CFX” value came to 0.70. The “fold increase in potency against JE2 in the presence of CFX compared to single agent” value in test [3] (CFX 9.4 µM) was around 650 fold. Moreover, in test [3] (JE2 + CFX), the “fold increase in potency compared to 1 for potentiation against JE2 by CFX” value was around 160 fold. Besides, in test [3] (JE2 + CFX, 4 vs 1, 10 vs 7, 14 vs 13), the “fold increase in potency of para- over meta-substituted analogue, potentiation by CFX” value was around 25 fold. Moreover, in the test with MRSA (USA300 JE2) [4] (JE2), the “Potentiation of Mitomycin-C (MMC)” value is recorded as “did not potentiate”. Besides, the “Inhibition of topoisomerase IV” value at E. coli topoisomerase IV was “not inhibited and not”.

The values are drawn from paper PMC6892255, “Identification of a potent small-molecule inhibitor of bacterial DNA repair that potentiates quinolone antibiotic activity in methicillin-resistant Staphylococcus aureus^” (Bioorganic & Medicinal Chemistry, 2019).
